The subject of experiment [1] is Enterococcus faecalis. Put plainly: Antibacterial activity against Enterococcus faecalis clinical isolate 20-11 assessed as inhibition of bacterial growth incubated for 24 hrs by CLSI protocol based broth microdilution method. The class given is functional. On the technique in general: Dilution methods test growth across graded concentrations, often in twofold steps.

The subject of experiment [2] is Enterococcus faecalis. Put plainly: Antibacterial activity against vancomycin resistant Enterococcus faecalis clinical isolate 20-1 assessed as inhibition of bacterial growth incubated for 24 hrs by CLSI protocol based broth microdilution method. It is filed as functional.
Experiment [3] relates to Streptococcus pneumoniae. Put plainly: Antibacterial activity against penicillin susceptible Streptococcus pneumoniae clinical isolate 20-1 assessed as inhibition of bacterial growth incubated for 24 hrs by CLSI protocol based broth microdilution method. It is filed as functional.
Experiment [4] concerns Streptococcus pneumoniae. The experiment in a line: Antibacterial activity against penicillin resistant Streptococcus pneumoniae clinical isolate 20-1 assessed as inhibition of bacterial growth incubated for 24 hrs by CLSI protocol based broth microdilution method. It is filed as functional.
Experiment [5] relates to Streptococcus pneumoniae. The experiment in a line: Antibacterial activity against Streptococcus pneumoniae ATCC49619 assessed as inhibition of bacterial growth incubated for 24 hrs by CLSI protocol based broth microdilution method. It is filed as functional.
The test system of experiment [6] is Staphylococcus aureus. Put plainly: Antibacterial activity against vancomycin-intermediate resistant Staphylococcus aureus Mu50 assessed as reduction in bacterial survival at 0.1 mg/ml. It is filed as functional, organism-based.
For another experiment, the system named is Enterococcus faecium. Put plainly: Antibacterial activity against vancomycin-resistant Enterococcus faecium 0649 assessed as reduction in bacterial survival at 3 mg/ml. The class given is functional, organism-based.
The subject of experiment [7] is Staphylococcus aureus. Put plainly: Antibacterial activity against vancomycin-intermediate resistant Staphylococcus aureus Mu50 assessed as reduction in bacterial survival at 0.25 to 3 mg/ml. The class given is functional, organism-based. The note with it: dose 0.25-3 mg/ml.
The test system of experiment [8] is Staphylococcus aureus. Put plainly: Antibacterial activity against vancomycin-intermediate resistant Staphylococcus aureus Mu50 assessed as reduction in fluorescence at 10 uM incubated for 1 hrs by fluorescence microscopic analysis. It is filed as functional, organism-based.

In brackets after ≈: the same amount, converted by molar mass. Activity calls are given as the source filed them.

`CN[C@H](CC(C)C)C(=O)N[C@H]1C(=O)N[C@@H](CC(N)=O)C(=O)N[C@H]2C(=O)N[C@H]3C(=O)N[C@H](C(=O)N[C@H](C(=O)O)c4cc(O)cc(O)c4-c4cc3ccc4O)[C@H](O)c3ccc(c(Cl)c3)Oc3cc2cc(c3O[C@@H]2O[C@H](CO)[C@@H](O)[C@H](O)[C@H]2O[C@H]2C[C@](C)(N)[C@H](O)[C@H](C)O2)Oc2ccc(cc2Cl)[C@H]1O` [VANCOMYCIN]: the minimum inhibitory concentration (MIC) (as a rule, the smallest concentration in the dilution series that meets the test's criterion for growth inhibition) in the experiment on Enterococcus faecalis [1] was 1 µg/mL (≈ 0.69 µM); in the experiment on Enterococcus faecalis [2], above 64 µg/mL; with Streptococcus pneumoniae [3] it was 0.25 µg/mL (≈ 0.173 µM); in the experiment with Streptococcus pneumoniae [4], 0.25 µg/mL (≈ 0.173 µM); with Streptococcus pneumoniae [5], 0.5 µg/mL (≈ 0.345 µM). Besides, the result in the experiment on Staphylococcus aureus [6] and with Enterococcus faecium was inactive. For the same compound, the outcome in the experiment on Staphylococcus aureus [7] was Active.

With `CC(C)C[C@H](C(=O)N[C@H]1C(=O)N[C@@H](CC(N)=O)C(=O)N[C@H]2C(=O)N[C@H]3C(=O)N[C@H](C(=O)N[C@H](C(=O)O)c4cc(O)cc(O)c4-c4cc3ccc4O)[C@H](O)c3ccc(c(Cl)c3)Oc3cc2cc(c3O[C@@H]2O[C@H](CO)[C@@H](O)[C@H](O)[C@H]2O[C@H]2C[C@](C)(N)[C@H](O)[C@H](C)O2)Oc2ccc(cc2Cl)[C@H]1O)N(C)C(=S)Nc1ccc2c(c1)C(=O)OC21c2ccc(O)cc2Oc2cc(O)ccc21`, in the experiment on Staphylococcus aureus [8], the outcome was inactive.
